According to patent US12371454B2, “Cyclic peptide compound having Kras inhibitory action” (priority 2019, dated 2025):
Positions of bridges follow the written chain, without caps; N, C: chain ends. Non-standard residues stand in square brackets, D forms with d. Residues, ends and D or L forms follow the SMILES beside them. *: point of attachment. hPhe(3-Cl-4-CF3) = N[C@@H](CCc1ccc(C(F)(F)F)c(Cl)c1)C(=O)O; hPhe(4-CF3) = N[C@@H](CCc1ccc(C(F)(F)F)cc1)C(=O)O; Pro(cis-4-Ph) = O=C(O)[C@@H]1C[C@H](c2ccccc2)CN1; NMePhe(4-Cl) = CN[C@@H](Cc1ccc(Cl)cc1)C(=O)O; NMePhe(3-Me) = CN[C@@H](Cc1cccc(C)c1)C(=O)O; NMePhe(4-Me) = CN[C@@H](Cc1ccc(C)cc1)C(=O)O; NMeMet(O2) = CN[C@@H](CCS(C)(=O)=O)C(=O)O; hNle(7,7-F2) = N[C@@H](CCCCC(F)F)C(=O)O; NMeGly(cPent) = CN[C@H](C(=O)O)C1CCCC1; Phe(2-OMe) = COc1ccccc1C[C@H](N)C(=O)O; Phe(3-I) = N[C@@H](Cc1cccc(I)c1)C(=O)O; Pip(4-oxo) = O=C1CCN[C@H](C(=O)O)C1; NMeCha = CN[C@@H](CC1CCCCC1)C(=O)O; NMeChg = CN[C@H](C(=O)O)C1CCCCC1; NMeF = CN[C@@H](Cc1ccccc1)C(=O)O; NMeT = CN[C@H](C(=O)O)[C@@H](C)O; NMeD = CN[C@@H](CC(=O)O)C(=O)O; NMeL = CN[C@@H](CC(C)C)C(=O)O; NMeV = CN[C@H](C(=O)O)C(C)C; d(β3hA) = C[C@@H](N)CC(=O)O; Pip = O=C(O)[C@@H]1CCCCN1; NMeA = CN[C@@H](C)C(=O)O; NMeAib = CNC(C)(C)C(=O)O; Piperidide = C1CCN(*)CC1; Pyrrolidide = C1CCN(*)C1; dNMeA = CN[C@H](C)C(=O)O; Ac5c = NC1(C(=O)O)CCCC1; Aze = O=C(O)[C@@H]1CCN1; Sar = CNCC(=O)O

Target: T1, Kras and SOS1 (biotin-tagged human Kras loaded with GDP, His-tagged human SOS1) (Homo sapiens, UniProt P01116, G12D)
T1 construct: made in house; host or cells: E. coli (stated for Kras only)
Assay: Protein-protein interaction inhibition between Kras and SOS1 (KrasGl2D-SOS PPI) using AlphaScreen
Type: binding
Conditions: AlphaScreen; biotin-tagged human Kras loaded with GDP, His-tagged human SOS1; read-out: KRAS G12D-SOS PPI IC50
In short: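 Kras was produced in E. coli, purified, then loaded with GDP. It was paired via streptavidin acceptor beads with His-SOS1 held on nickel donor beads, and proximity signal at 520-620 nm was read after 680 nm illumination.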

T1 sequence (P01116 1-188 isoform P01116-2 G12D): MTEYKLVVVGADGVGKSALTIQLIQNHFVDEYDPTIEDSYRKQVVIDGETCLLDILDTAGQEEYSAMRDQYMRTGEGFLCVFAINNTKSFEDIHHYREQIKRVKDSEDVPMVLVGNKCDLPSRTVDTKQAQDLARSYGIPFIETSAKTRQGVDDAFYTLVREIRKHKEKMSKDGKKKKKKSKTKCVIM

Q: For `CC[C@H](C)[C@@H]1NC(=O)[C@H](C)N(C)C(=O)C[C@@H](C)NC(=O)[C@H](C2CCCC2)N(C)C(=O)C2(CCCC2)NC(=O)[C@@H]2CCCN2C(=O)[C@H](CCc2ccc(C(F)(F)F)c(Cl)c2)NC(=O)[C@@H](C)N(C)C(=O)[C@H](Cc2cccc(C)c2)N(C)C(=O)CN(C)C(=O)CN(C)C1=O` [Compound 1088] (cyclo([Ac5c][NMeGly(cPent)][d(β3hA)][NMeA]I[Sar][Sar][NMePhe(3-Me)][dNMeA][hPhe(3-Cl-4-CF3)]P)), which IC50 is on record?
A: 170 nM

Q: With `CC[C@H](C)[C@@H]1NC(=O)[C@H](CC(C)C)N(C)C(=O)C[C@@H](C(=O)N2CCCCC2)N(C)C(=O)[C@H](C2CCCCC2)N(C)C(=O)C2(CCCC2)NC(=O)[C@@H]2CC(=O)CCN2C(=O)[C@H](CCc2ccc(C(F)(F)F)c(Cl)c2)NC(=O)CN(C)C(=O)[C@H](CC2CCCCC2)N(C)C(=O)CN(C)C(=O)CN(C)C1=O` [Compound 1089] ([NMeL]I[Sar][Sar][NMeCha][Sar][hPhe(3-Cl-4-CF3)][Pip(4-oxo)][Ac5c][NMeChg][NMeD]-Piperidide; lactam N-11) as the compound, how does the IC50 read?
A: 1.6 nM

Q: With `CC[C@H](C)[C@@H]1NC(=O)[C@H](C)N(C)C(=O)C[C@@H](C)NC(=O)[C@H](CC(C)C)N(C)C(=O)C2(CCCC2)NC(=O)[C@@H]2CCCN2C(=O)[C@H](CCc2ccc(C(F)(F)F)cc2)NC(=O)CN(C)C(=O)[C@H](CC2CCCCC2)N(C)C(=O)CN(C)C(=O)CN(C)C1=O` [Compound 1090] (cyclo([Ac5c][NMeL][d(β3hA)][NMeA]I[Sar][Sar][NMeCha][Sar][hPhe(4-CF3)]P)) as the compound, how does the IC50 read?
A: 88 nM

Q: `CC[C@H](C)[C@@H]1NC(=O)[C@H](C)N(C)C(=O)C[C@@H](C(=O)N2CCCC2)NC(=O)[C@H](CC(C)C)N(C)C(=O)[C@H](Cc2ccccc2)N(C)C(=O)[C@H](CCCCC(F)F)NC(=O)[C@H](CCc2ccc(C(F)(F)F)cc2)NC(=O)CN(C)C(=O)[C@H](Cc2ccc(Cl)cc2)N(C)C(=O)CN(C)C(=O)CN(C)C1=O` [Compound 1092] ([NMeA]I[Sar][Sar][NMePhe(4-Cl)][Sar][hPhe(4-CF3)][hNle(7,7-F2)][NMeF][NMeL]D-Pyrrolidide; lactam N-11) was tested. Which IC50 did it give?
A: 41 nM

Q: Which IC50 does the source give for `CC[C@H](C)[C@@H]1NC(=O)[C@H](CC(C)C)N(C)C(=O)C[C@@H](C(=O)N2CCCCC2)N(C)C(=O)[C@H](C2CCCCC2)N(C)C(=O)C2(CCCC2)NC(=O)[C@@H]2CCCN2C(=O)[C@H](CCc2ccc(C(F)(F)F)c(Cl)c2)NC(=O)CN(C)C(=O)[C@H](CCS(C)(=O)=O)N(C)C(=O)CN(C)C(=O)CN(C)C1=O` [Compound 1094] ([NMeL]I[Sar][Sar][NMeMet(O2)][Sar][hPhe(3-Cl-4-CF3)]P[Ac5c][NMeChg][NMeD]-Piperidide; lactam N-11) here?
A: 2.2 nM

Q: Which IC50 does the source give for `CC[C@H](C)[C@@H]1NC(=O)[C@H](CC(C)C)N(C)C(=O)C[C@@H](C(=O)N2CCCCC2)N(C)C(=O)[C@H](C2CCCCC2)N(C)C(=O)C2(CCCC2)NC(=O)[C@@H]2C[C@H](c3ccccc3)CN2C(=O)[C@H](CCc2ccc(C(F)(F)F)c(Cl)c2)NC(=O)CN(C)C(=O)[C@H](CC2CCCCC2)N(C)C(=O)[C@@H]2CCCN2C(=O)CN(C)C1=O` [Compound 1096] ([NMeL]I[Sar]P[NMeCha][Sar][hPhe(3-Cl-4-CF3)][Pro(cis-4-Ph)][Ac5c][NMeChg][NMeD]-Piperidide; lactam N-11) here?
A: 2.6 nM

Q: With `CC[C@H](C)[C@@H]1NC(=O)[C@@H]2CCCCN2C(=O)C[C@@H](C)NC(=O)[C@H](CC(C)C)N(C)C(=O)C2(CCCC2)NC(=O)[C@@H]2CCCN2C(=O)[C@H](CCc2ccc(C(F)(F)F)cc2)NC(=O)CN(C)C(=O)[C@H](CC2CCCCC2)N(C)C(=O)CN(C)C(=O)CN(C)C1=O` [Compound 1097] (cyclo([Ac5c][NMeL][d(β3hA)][Pip]I[Sar][Sar][NMeCha][Sar][hPhe(4-CF3)]P)) as the compound, how does the IC50 read?
A: 230 nM

Q: How did the IC50 turn out when `CC[C@H](C)[C@@H]1NC(=O)[C@H](CC(C)C)N(C)C(=O)C[C@@H](C(=O)N2CCCCC2)N(C)C(=O)[C@H](CC(C)C)NC(=O)C(C)(C)N(C)C(=O)[C@H](Cc2ccccc2OC)NC(=O)[C@H](Cc2cccc(I)c2)NC(=O)CN(C)C(=O)[C@H](Cc2ccc(C)cc2)N(C)C(=O)CN(C)C(=O)CN(C)C1=O` [Compound 1100] ([NMeL]I[Sar][Sar][NMePhe(4-Me)][Sar][Phe(3-I)][Phe(2-OMe)][NMeAib]L[NMeD]-Piperidide; lactam N-11) was run?
A: 6.3 nM

Q: How did the IC50 turn out when `CC[C@H](C)[C@@H]1NC(=O)[C@H](CC(C)C)N(C)C(=O)C[C@@H](C(=O)N2CCCCC2)N(C)C(=O)[C@H]([C@@H](C)OC)N(C)C(=O)C2(CCCC2)NC(=O)[C@@H]2CCCN2C(=O)[C@H](CCc2ccc(C(F)(F)F)c(Cl)c2)NC(=O)CN(C)C(=O)[C@H](CC2CCCCC2)N(C)C(=O)CN(C)C(=O)CN(C)C1=O` [Compound 1101] ([NMeL]I[Sar][Sar][NMeCha][Sar][hPhe(3-Cl-4-CF3)]P[Ac5c][NMeT](Me)[NMeD]-Piperidide; lactam N-11) was run?
A: 9 nM

Q: How did the IC50 turn out when `CC[C@H](C)[C@@H]1NC(=O)[C@H](C)N(C)C(=O)C[C@@H](C(=O)N2CCCCC2)N(C)C(=O)[C@H](C(C)C)N(C)C(=O)C2(CCCC2)NC(=O)[C@@H]2CCCN2C(=O)[C@H](CCc2ccc(C(F)(F)F)c(Cl)c2)NC(=O)[C@@H](C)N(C)C(=O)[C@H](CC2CCCCC2)N(C)C(=O)[C@@H]2CCN2C(=O)[C@H](C)N(C)C1=O` [Compound 1103] ([NMeA]I[NMeA][Aze][NMeCha][dNMeA][hPhe(3-Cl-4-CF3)]P[Ac5c][NMeV][NMeD]-Piperidide; lactam N-11) was run?
A: 16 nM
